{"source": "patent US10300065B2", "about": "“Method of treating or prevention of atherothrombotic events in patients with history of myocardial infarction” (ASTRAZENECA AB, priority 2015, dated 2019)", "tested_on": "patients with a history of myocardial infarction", "key": {"[1]": {"conditions": "60 mg bid (N = 6958), % of patients"}, "[2]": {"conditions": "60 mg bid (N = 6958), listed as ticagrelor"}, "[3]": {"conditions": "60 mg bid, intention-to-treat population"}}, "note": "Like-named read-outs stand apart in the source and are kept apart here.", "excerpt": "Any erroneously treated patients (e.g., randomized to ticagrelor but actually given placebo) were to be accounted for in the actual treatment group.\nThe primary efficacy endpoint was the composite of cardiovascular death, myocardial infarction, or stroke. Secondary endpoints were cardiovascular death and all-cause mortality. The analysis of secondary endpoints proceeded in a hierarchical fashion, starting with cardiovascular death and then death from any cause. Additional endpoints listed below were evaluated on an exploratory basis. Exploratory efficacy endpoints included substituting coronary heart disease death for cardiovascular death, and the additional end points of urgent coronary revascularization, unstable angina, and transient ischemic attack. The primary safety endpoint was TIMI major bleeding. Other safety endpoints included intracranial hemorrhage (ICH) and fatal bleeding. […] A central clinical events committee whose members were unaware of the treatment assignments adjudicated all efficacy endpoints and bleeding episodes.\nSafety analyses included all randomized patients who received at least one dose of study drug and for whom post-dose data were available. Patients were censored at the first of the pre-specified Common Study End Date, withdrawal of consent, or the last clinical event assessment. Safety was analyzed as on-treatment including all events occurring after first dose and within 7 days after the last dose of study drug. […] Event rates are expressed as Kaplan-Meier estimates of cumulative incidence."}
{"smiles": "CCCSc1nc(N[C@@H]2C[C@H]2c2ccc(F)c(F)c2)c2nnn([C@@H]3C[C@H](OCCO)[C@@H](O)[C@H]3O)c2n1", "note": "[Ticagrelor, (1S,2S,3R,5S)-3-[7-{[(1R,2S)-2-(3,4-difluorophenyl)cyclopropyl]amino}-5-(propylthio)-3H-[1,2,3]-triazolo[4,5-d]pyrimidin-3-yl]-5-(2-hydroxyethoxy)cyclopentane-1,2-diol]", "values": [{"measurement": "Dyspnea, 3-year event rate", "setting": "60 mg bid", "result": 15.8, "unit": "%"}, {"measurement": "Fatal bleeding: ARI (%)", "setting": "60 mg bid", "result": "−0.01", "unit": "%"}, {"measurement": "Hypotension", "setting": "60 mg bid", "result": 0.66, "unit": "events/100 pt years"}, {"measurement": "ICH: ARI (%)", "setting": "60 mg bid", "result": 0.14, "unit": "%"}, {"measurement": "ICH: NNH", "setting": "60 mg bid", "result": 714}, {"measurement": "TIMI major bleeding: ARI (%)", "setting": "60 mg bid", "result": 1.24, "unit": "%"}, {"measurement": "TIMI major bleeding: NNH", "setting": "60 mg bid", "result": 81}, {"measurement": "frequency of death (including bleeding)", "setting": "60 mg bid", "result": 4.2, "unit": "%"}, {"measurement": "frequency of death, bleeding events excluded", "setting": "60 mg bid", "result": 3.9, "unit": "%"}, {"measurement": "median duration of resolved dyspnea adverse events", "setting": "60 mg bid", "result": 31, "unit": "days"}, {"measurement": "patients with serum creatinine concentration increased by >50%", "setting": "60 mg bid", "result": "approximately 4%"}, {"measurement": "syncope, patients reporting", "setting": "60 mg bid", "result": 1.2, "unit": "%"}, {"measurement": "Adverse event leading to death: (%)", "setting": "60 mg bid (N = 6958)", "result": "(2.1) %"}, {"measurement": "Adverse event leading to death: n", "setting": "60 mg bid (N = 6958)", "result": 149}, {"measurement": "Adverse event leading to discontinuation of study drug: (%)", "setting": "60 mg bid (N = 6958)", "result": "(16.1) %"}, {"measurement": "Adverse event leading to discontinuation of study drug: n", "setting": "60 mg bid (N = 6958)", "result": 1117}, {"measurement": "Any adverse event: (%)", "setting": "60 mg bid (N = 6958)", "result": "(75.7) %"}, {"measurement": "Any adverse event: n", "setting": "60 mg bid (N = 6958)", "result": 5268}, {"measurement": "Any serious adverse event: (%)", "setting": "60 mg bid (N = 6958)", "result": "(21.5) %"}, {"measurement": "Any serious adverse event: n", "setting": "60 mg bid (N = 6958)", "result": 1499}, {"measurement": "Bleeding leading to study drug discontinuation: 3-year Kaplan-Meier estimate", "setting": "60 mg bid (N = 6958)", "result": "(6.2) %"}, {"measurement": "Bleeding leading to study drug discontinuation: n", "setting": "60 mg bid (N = 6958)", "result": 355}, {"measurement": "Bleeding requiring transfusion: 3-year Kaplan-Meier estimate", "setting": "60 mg bid (N = 6958)", "result": "(2.10) %"}, {"measurement": "Bleeding requiring transfusion: n", "setting": "60 mg bid (N = 6958)", "result": 105}, {"measurement": "Bradyarrhythmia adverse event: (%)", "setting": "60 mg bid (N = 6958)", "result": "(1.7) %"}, {"measurement": "Bradyarrhythmia adverse event: n", "setting": "60 mg bid (N = 6958)", "result": 121}, {"measurement": "Dyspnea AE: (%)", "setting": "60 mg bid (N = 6958)", "result": "(14.17) %"}, {"measurement": "Dyspnea AE: n", "setting": "60 mg bid (N = 6958)", "result": 986}, {"measurement": "Dyspnea SAE: (%)", "setting": "60 mg bid (N = 6958)", "result": "(0.3) %"}, {"measurement": "Dyspnea SAE: n", "setting": "60 mg bid (N = 6958)", "result": 22}, {"measurement": "Dyspnea leading to study drug discontinuation: (%)", "setting": "60 mg bid (N = 6958)", "result": "(4.3) %"}, {"measurement": "Dyspnea leading to study drug discontinuation: n", "setting": "60 mg bid (N = 6958)", "result": 296}, {"measurement": "Fatal Bleeding: 3-year Kaplan-Meier estimate", "setting": "60 mg bid (N = 6958)", "result": "(0.25) %"}, {"measurement": "Fatal Bleeding: n", "setting": "60 mg bid (N = 6958)", "result": 11}, {"measurement": "Fatal bleeding or non-fatal intracranial hemorrhage: 3-year Kaplan-Meier estimate", "setting": "60 mg bid (N = 6958)", "result": "(0.63) %"}, {"measurement": "Fatal bleeding or non-fatal intracranial hemorrhage: n", "setting": "60 mg bid (N = 6958)", "result": 32}, {"measurement": "Fatal bleeding: (%) patients with event", "setting": "60 mg bid (N = 6958)", "result": "(0.2) %"}, {"measurement": "Fatal bleeding: Events/100 pt yrs", "setting": "60 mg bid (N = 6958)", "result": 0.08, "unit": "Events/100 pt yrs"}, {"measurement": "Gout adverse event: (%)", "setting": "60 mg bid (N = 6958)", "result": "(1.4) %"}, {"measurement": "Gout adverse event: n", "setting": "60 mg bid (N = 6958)", "result": 97}, {"measurement": "Intracranial Hemorrhage: 3-year Kaplan-Meier estimate", "setting": "60 mg bid (N = 6958)", "result": "(0.61) %"}, {"measurement": "Intracranial Hemorrhage: n", "setting": "60 mg bid (N = 6958)", "result": 28}, {"measurement": "Intracranial hemorrhage: (%) patients with event", "setting": "60 mg bid (N = 6958)", "result": "(0.4) %"}, {"measurement": "Intracranial hemorrhage: Events/100 pt yrs", "setting": "60 mg bid (N = 6958)", "result": 0.19, "unit": "Events/100 pt yrs"}, {"measurement": "Renal adverse event: (%)", "setting": "60 mg bid (N = 6958)", "result": "(2.5) %"}, {"measurement": "Renal adverse event: n", "setting": "60 mg bid (N = 6958)", "result": 173}, {"measurement": "Serious adverse event leading to discontinuation of study drug: (%)", "setting": "60 mg bid (N = 6958)", "result": "(3.7) %"}, {"measurement": "Serious adverse event leading to discontinuation of study drug: n", "setting": "60 mg bid (N = 6958)", "result": 255}, {"measurement": "TIMI Major bleeding: 3-year Kaplan-Meier estimate", "setting": "60 mg bid (N = 6958)", "result": "(2.30) %"}, {"measurement": "TIMI Major bleeding: n", "setting": "60 mg bid (N = 6958)", "result": 115}, {"measurement": "TIMI Major or Minor: (%) patients with event", "setting": "60 mg bid (N = 6958)", "result": "(2.4) %"}, {"measurement": "TIMI Major or Minor: Events/100 pt yrs", "setting": "60 mg bid (N = 6958)", "result": 1.15, "unit": "Events/100 pt yrs"}, {"measurement": "TIMI Major or Minor: n patients with event", "setting": "60 mg bid (N = 6958)", "result": 168}, {"measurement": "TIMI Major: (%) patients with event", "setting": "60 mg bid (N = 6958)", "result": "(1.7) %"}, {"measurement": "TIMI Major: Events/100 pt yrs", "setting": "60 mg bid (N = 6958)", "result": 0.78, "unit": "Events/100 pt yrs"}, {"measurement": "TIMI Minor bleeding: 3-year Kaplan-Meier estimate", "setting": "60 mg bid (N = 6958)", "result": "(1.18) %"}, {"measurement": "TIMI Minor bleeding: n", "setting": "60 mg bid (N = 6958)", "result": 55}, {"measurement": "Non-hemorrhagic adverse reaction: Diarrhea", "setting": "[1]", "result": 3.3, "unit": "%"}, {"measurement": "Non-hemorrhagic adverse reaction: Dizziness", "setting": "[1]", "result": 4.5, "unit": "%"}, {"measurement": "Non-hemorrhagic adverse reaction: Dyspnea", "setting": "[1]", "result": 14.2, "unit": "%"}, {"measurement": "Bleeding leading to study drug discontinuation: 3-year Kaplan-Meier estimate", "setting": "[2]", "result": 6.2, "unit": "%"}, {"measurement": "Bleeding requiring transfusion: 3-year Kaplan-Meier estimate", "setting": "[2]", "result": 2.1, "unit": "%"}, {"measurement": "Dyspnea leading to study drug discontinuation: (%)", "setting": "[2]", "result": 4.3, "unit": "%"}, {"measurement": "Fatal Bleeding: 3-year Kaplan-Meier estimate", "setting": "[2]", "result": 0.3, "unit": "%"}, {"measurement": "Intracranial Hemorrhage: 3-year Kaplan-Meier estimate", "setting": "[2]", "result": 0.6, "unit": "%"}, {"measurement": "TIMI Major bleeding: 3-year Kaplan-Meier estimate", "setting": "[2]", "result": 2.30, "unit": "%"}, {"measurement": "Bleeding leading to study drug discontinuation: HR", "setting": "60 mg bid vs Placebo", "result": 4.31}, {"measurement": "Bleeding requiring transfusion: HR", "setting": "60 mg bid vs Placebo", "result": 3.08}, {"measurement": "Dyspnea AE: HR", "setting": "60 mg bid vs Placebo", "result": 2.82}, {"measurement": "Dyspnea SAE: HR", "setting": "60 mg bid vs Placebo", "result": 2.91}, {"measurement": "Dyspnea leading to study drug discontinuation: HR", "setting": "60 mg bid vs Placebo", "result": 6.35}, {"measurement": "Fatal Bleeding: HR", "setting": "60 mg bid vs Placebo", "result": 1.00}, {"measurement": "Fatal bleeding or non-fatal intracranial hemorrhage: HR", "setting": "60 mg bid vs Placebo", "result": 1.22}, {"measurement": "Intracranial Hemorrhage: HR", "setting": "60 mg bid vs Placebo", "result": 1.33}, {"measurement": "TIMI Major bleeding: HR", "setting": "60 mg bid vs Placebo", "result": 2.32}, {"measurement": "TIMI Minor bleeding: HR", "setting": "60 mg bid vs Placebo", "result": 3.31}, {"measurement": "TIMI major bleeding events per year if 10,000 patients were started on treatment versus placebo", "setting": "60 mg bid, intention-to-treat data", "result": 31}, {"measurement": "Death: (%)", "setting": "[3]", "result": "(4.1) %"}, {"measurement": "Death: n", "setting": "[3]", "result": 289}, {"measurement": "Non-Cardiovascular death: (%)", "setting": "[3]", "result": "(1.6) %"}]}
